Consider three molecules from PMC3776780, “Dual p38/JNK Mitogen Activated Protein Kinase Inhibitors Prevent Ozone-Induced Airway Hyperreactivity in Guinea Pigs” (PLoS ONE, 2013).

Experiment [1] concerns neuronal M2 muscarinic receptors. As to the kind of experiment: neuronal M2 muscarinic receptor function (gallamine potentiation of vagally induced bronchoconstriction). The experiment is classed as in vivo, guinea pigs. The following applies: ozone-exposed, 30 mg/kg ip 1 h before ozone, gallamine 0.1–10 mg/kg iv. The protocol:
(§1) Guinea pigs were exposed to 2 ppm ozone or filtered air for 4 hours as described previously. Physiological measurements, airway inflammation, and histological measurements were made one day after a single ozone exposure.
(§2) Animals were given 30 mg/kg intraperitoneally of the dual p38 and JNK MAPK inhibitors V-05-013, V-05-014, or V-05-015 (Vertex Pharmaceuticals, Cambridge, MA) one hour before ozone exposure (Figure 1). These compounds were chosen because of their overall kinase selectivity profile. […] Inhibitors were dissolved in 25% DMSO in phosphate buffered saline (PBS). Air exposed control animals were given 25% DMSO in PBS one hour before ozone exposure.
Recovery from administration of intravenous acetylcholine was confirmed by pulmonary inflation pressure and heart rate returning to baseline before measuring M2 muscarinic receptor function (5–10 minutes after the last dose of acetylcholine).

Another experiment deals with ROCK1 (Homo sapiens, UniProt Q13464). As to the kind of experiment: spectrophotometric coupled-enzyme kinase inhibition assay. The experiment is classed as biochemical. The following applies: read-out: Ki or IC50 ROCK1. The protocol:
(§3) Affinity was measured using a kinase inhibition assay. Compounds were assayed for the inhibition of various kinases using a modification of a spectrophotometric coupled-enzyme assay. In this assay, a fixed concentration of activated kinase (10–40 nM) was incubated with various concentrations of a potential inhibitor dissolved in DMSO for 10 minutes at 30°C in a buffer containing 0.1 M HEPES, pH 7.5, containing 10 mM MgCl2, 2.5 mM phosphoenolpyruvate, 200 µM NADH, 2 mM DTT, 30 µg/mL pyruvate kinase, 10 µg/mL lactate dehydrogenase, and 200 µM–500 µM EGF receptor peptide. The EGF receptor peptide has the sequence […]. The reaction was initiated by the addition of ATP equal to the ATP Km of the kinase, and the assay plate is inserted into the spectrophotometer’s assay plate compartment that was maintained at 30°C. The decrease of absorbance at 340 nm was monitored as a function of time for 10 minutes. The rate data as a function of inhibitor concentration was either fit as an IC50 or to a competitive inhibition kinetic model to determine the compound Ki (see table 1).

For a further experiment, the target named is IRAK. Described as above. The experiment is classed as biochemical. The following applies: read-out: Ki or IC50 IRAK. As to the method:
as §3

The next experiment concerns the target PKA (Homo sapiens, UniProt P17612). The experiment is described as above. The following applies: read-out: Ki or IC50 PKA. The experiment is classed as biochemical. As to the method:
as §3

In a further experiment the target is EphA. Described as above. Particulars: read-out: Ki or IC50 EphA. The format is biochemical. The protocol: as §3
A further experiment deals with T1, MKK4 (Homo sapiens, UniProt P45985).
T1 sequence (P45985 1-399): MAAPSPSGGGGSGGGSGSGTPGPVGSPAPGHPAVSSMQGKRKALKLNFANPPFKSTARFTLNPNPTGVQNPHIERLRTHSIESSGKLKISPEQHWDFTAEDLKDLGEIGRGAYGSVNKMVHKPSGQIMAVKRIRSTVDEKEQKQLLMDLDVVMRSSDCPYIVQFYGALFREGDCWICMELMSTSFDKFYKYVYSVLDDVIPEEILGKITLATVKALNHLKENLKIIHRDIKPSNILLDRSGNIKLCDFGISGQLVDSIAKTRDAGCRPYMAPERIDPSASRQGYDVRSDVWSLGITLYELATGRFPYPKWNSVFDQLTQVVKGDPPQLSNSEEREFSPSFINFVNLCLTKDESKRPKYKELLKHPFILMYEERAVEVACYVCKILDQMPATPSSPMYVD
The experiment is described as above. The following applies: read-out: Ki or IC50 MKK4. The format is biochemical. As to the method: as §3

The target of a further experiment is LCK (Homo sapiens, UniProt P06239). Described as above. The experiment is classed as biochemical. Particulars: read-out: Ki or IC50 LCK. As to the method:
as §3

For the next experiment, the target named is TIE2 (Homo sapiens, UniProt Q02763). The experiment is described as above. The format is biochemical. The following applies: read-out: Ki or IC50 TIE2. The protocol: as §3
Sequence of TIE2 (Q02763 23-1124, species assumed): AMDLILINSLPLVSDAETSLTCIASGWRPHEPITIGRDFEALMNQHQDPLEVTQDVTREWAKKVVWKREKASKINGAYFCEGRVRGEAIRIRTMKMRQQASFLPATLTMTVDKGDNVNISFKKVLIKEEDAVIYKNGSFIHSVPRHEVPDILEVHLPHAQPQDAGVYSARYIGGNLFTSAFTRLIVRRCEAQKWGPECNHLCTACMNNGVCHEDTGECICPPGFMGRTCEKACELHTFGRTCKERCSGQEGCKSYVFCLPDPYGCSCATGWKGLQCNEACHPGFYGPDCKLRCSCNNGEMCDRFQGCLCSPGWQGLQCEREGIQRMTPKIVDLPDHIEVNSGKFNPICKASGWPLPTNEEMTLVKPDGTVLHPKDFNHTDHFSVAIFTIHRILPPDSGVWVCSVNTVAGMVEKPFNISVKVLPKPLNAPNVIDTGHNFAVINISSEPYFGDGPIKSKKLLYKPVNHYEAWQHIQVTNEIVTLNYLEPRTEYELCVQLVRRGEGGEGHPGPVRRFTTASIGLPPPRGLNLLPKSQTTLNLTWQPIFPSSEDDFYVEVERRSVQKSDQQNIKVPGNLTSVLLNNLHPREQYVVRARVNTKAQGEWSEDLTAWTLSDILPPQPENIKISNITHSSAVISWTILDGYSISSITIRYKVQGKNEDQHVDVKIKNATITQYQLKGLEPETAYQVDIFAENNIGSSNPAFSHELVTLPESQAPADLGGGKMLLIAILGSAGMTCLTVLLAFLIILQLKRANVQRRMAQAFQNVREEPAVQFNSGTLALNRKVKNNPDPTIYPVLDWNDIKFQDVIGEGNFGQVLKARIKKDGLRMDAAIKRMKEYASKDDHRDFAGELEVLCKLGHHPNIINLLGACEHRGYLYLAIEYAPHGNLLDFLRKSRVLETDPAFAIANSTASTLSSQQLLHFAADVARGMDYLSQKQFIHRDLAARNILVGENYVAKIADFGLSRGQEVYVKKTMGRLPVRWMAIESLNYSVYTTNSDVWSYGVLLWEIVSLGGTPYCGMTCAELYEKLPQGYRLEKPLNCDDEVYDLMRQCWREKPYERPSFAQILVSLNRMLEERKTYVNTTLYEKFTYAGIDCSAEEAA
The next experiment deals with PDK1 (Homo sapiens, UniProt O15530). Described as above. The format is biochemical. The following applies: read-out: Ki or IC50 PDK1. As to the method: as §3
Sequence of PDK1 (O15530 whole entry): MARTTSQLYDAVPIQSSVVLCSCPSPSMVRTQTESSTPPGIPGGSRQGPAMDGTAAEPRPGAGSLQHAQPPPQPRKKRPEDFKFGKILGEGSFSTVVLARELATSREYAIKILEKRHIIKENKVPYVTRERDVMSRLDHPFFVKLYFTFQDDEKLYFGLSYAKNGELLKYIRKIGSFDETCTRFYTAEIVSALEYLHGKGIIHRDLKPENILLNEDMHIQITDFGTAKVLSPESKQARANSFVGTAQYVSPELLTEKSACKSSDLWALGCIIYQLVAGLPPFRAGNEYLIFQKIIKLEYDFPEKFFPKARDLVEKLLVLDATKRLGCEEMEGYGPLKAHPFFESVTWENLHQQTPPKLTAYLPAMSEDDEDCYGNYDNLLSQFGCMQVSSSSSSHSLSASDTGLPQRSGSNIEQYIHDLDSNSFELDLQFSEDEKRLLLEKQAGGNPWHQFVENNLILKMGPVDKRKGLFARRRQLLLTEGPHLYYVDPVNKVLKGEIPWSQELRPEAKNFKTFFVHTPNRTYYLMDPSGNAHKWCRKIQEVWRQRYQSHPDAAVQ
The subject of experiment [2] is M3 muscarinic receptor function on airway smooth muscle. As to the kind of experiment: smooth muscle M3 muscarinic receptor function (bronchoconstriction to intravenous acetylcholine). The format is in vivo, guinea pigs. Particulars: acetylcholine 1–10 µg/kg iv; for effect on ozone-induced potentiation of bronchoconstriction to intravenous acetylcholine: ozone-exposed, 30 mg/kg ip 1 h before ozone. As to the method: as §1, §2
Recovery from vagal stimulation was confirmed by pulmonary inflation pressure and heart rate returning to baseline before measuring smooth muscle M3 muscarinic receptor function (5–10 minutes after cessation of vagal stimulation). In vagotomized guinea pigs, M3 muscarinic receptor function on airway smooth muscle was tested by measuring bronchoconstriction after administration of acetylcholine (1–10 µg/kg iv, Sigma-Aldrich).

The subject of experiment [3] is ozone-induced airway hyperreactivity mediated by the vagus nerves. As to the kind of experiment: vagally induced bronchoconstriction (airway hyperreactivity). The format is in vivo, guinea pigs. Particulars: ozone-exposed, 30 mg/kg ip 1 h before ozone, one day post-exposure, vagal stimulation 1–25 Hz. As to the method: as §1, §2
(§4) Physiological measurements were made as previously described. The jugular veins were cannulated for intravenous administration of drugs and the right carotid artery was cannulated to measure heart rate and blood pressure. Both vagus nerves were cut and distal ends placed on platinum electrodes submerged in liquid paraffin. Animals were tracheostomized, ventilated (1 ml/100 g body weight, 100 breaths per minute) and paralyzed with a constant infusion of succinylcholine (10 µg/kg/min iv, Sigma-Aldrich). Pulmonary inflation pressure was measured at the trachea and bronchoconstriction was measured as the increase in pressure over basal inflation pressure produced by the ventilator.
(§5) Electrical stimulation of both vagus nerves (10V, 0.2 ms pulse width, 1–25 Hz, 5 sec duration at 1 minute intervals) produced frequency dependent bronchoconstriction and bradycardia due to release of acetylcholine onto muscarinic receptors.

A short description of experiment [4]: baseline cardiovascular and pulmonary parameters one day after ozone or air exposure. The format is in vivo, guinea pigs. The following applies: ozone-exposed (2 ppm, 4 h), inhibitor 30 mg/kg ip 1 h before, one day post-exposure, mean ± SEM. As to the method:
as §1, §2
One day after exposure to ozone, guinea pigs were anesthetized with 1.9 g/kg urethane i.p. (Sigma-Aldrich, St. Louis, MO). This dose produces a deep anesthesia lasting 8–10 hours though no experiments lasted longer than 4 hours.
as §4

Experiment [5] has as its system vagally mediated falls in heart rate. The experiment is described as follows: falls in heart rate in response to vagal stimulation. The experiment is classed as in vivo, guinea pigs. Particulars: ozone-exposed, 30 mg/kg ip 1 h before ozone. As to the method:
as §1, §2, §4, §5

Another experiment has as its target JAK2 (Homo sapiens, UniProt O60674). The experiment is described as follows: spectrophotometric coupled-enzyme kinase inhibition assay. The format is biochemical. The following applies: read-out: Ki or IC50 JAK2. The protocol: as §3
In the next experiment the target is FLT3 (Homo sapiens, UniProt P36888). Described as above. The experiment is classed as biochemical. The following applies: read-out: Ki or IC50 FLT3. The protocol:
as §3

The next experiment concerns the target ITK (Homo sapiens, UniProt Q08881). The description is as above. The following applies: read-out: Ki or IC50 ITK. The experiment is classed as biochemical. As to the method:
as §3

Sequence of ROCK1 (Q13464 whole entry, species assumed): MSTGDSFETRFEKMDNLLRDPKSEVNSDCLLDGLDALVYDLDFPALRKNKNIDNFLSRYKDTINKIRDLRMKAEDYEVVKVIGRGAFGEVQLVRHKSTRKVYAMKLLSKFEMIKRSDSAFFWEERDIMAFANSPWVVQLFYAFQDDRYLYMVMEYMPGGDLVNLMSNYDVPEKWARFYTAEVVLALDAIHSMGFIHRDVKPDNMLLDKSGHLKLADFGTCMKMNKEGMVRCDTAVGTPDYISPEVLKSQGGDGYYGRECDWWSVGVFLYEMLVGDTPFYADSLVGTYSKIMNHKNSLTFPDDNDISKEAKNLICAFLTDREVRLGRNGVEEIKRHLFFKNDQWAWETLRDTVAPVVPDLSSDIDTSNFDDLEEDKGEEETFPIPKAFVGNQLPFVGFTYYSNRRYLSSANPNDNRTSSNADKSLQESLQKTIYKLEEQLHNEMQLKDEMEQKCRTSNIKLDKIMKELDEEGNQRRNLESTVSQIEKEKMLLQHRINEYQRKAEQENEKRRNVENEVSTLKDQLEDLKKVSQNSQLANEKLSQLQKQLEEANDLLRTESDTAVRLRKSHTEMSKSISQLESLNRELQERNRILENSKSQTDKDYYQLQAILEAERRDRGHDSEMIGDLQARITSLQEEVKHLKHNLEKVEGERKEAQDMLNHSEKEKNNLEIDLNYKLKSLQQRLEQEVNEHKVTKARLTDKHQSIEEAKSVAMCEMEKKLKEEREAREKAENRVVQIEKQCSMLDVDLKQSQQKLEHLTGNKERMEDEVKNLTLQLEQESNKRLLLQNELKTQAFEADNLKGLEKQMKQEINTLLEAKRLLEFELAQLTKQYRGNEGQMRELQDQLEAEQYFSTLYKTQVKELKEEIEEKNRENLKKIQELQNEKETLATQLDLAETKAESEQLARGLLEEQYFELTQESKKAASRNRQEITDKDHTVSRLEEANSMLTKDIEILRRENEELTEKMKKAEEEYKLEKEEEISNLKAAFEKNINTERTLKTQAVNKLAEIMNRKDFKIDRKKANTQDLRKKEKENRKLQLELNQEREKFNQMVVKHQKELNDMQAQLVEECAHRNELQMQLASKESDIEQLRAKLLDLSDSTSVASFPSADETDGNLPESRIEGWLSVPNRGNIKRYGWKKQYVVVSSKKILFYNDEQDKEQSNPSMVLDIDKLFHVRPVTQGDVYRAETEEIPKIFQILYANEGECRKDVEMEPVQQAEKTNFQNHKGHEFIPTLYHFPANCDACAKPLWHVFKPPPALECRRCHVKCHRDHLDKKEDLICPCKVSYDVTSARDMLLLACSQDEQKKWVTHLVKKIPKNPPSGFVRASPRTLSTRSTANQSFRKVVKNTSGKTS
Sequence of LCK (P06239 whole entry, species assumed): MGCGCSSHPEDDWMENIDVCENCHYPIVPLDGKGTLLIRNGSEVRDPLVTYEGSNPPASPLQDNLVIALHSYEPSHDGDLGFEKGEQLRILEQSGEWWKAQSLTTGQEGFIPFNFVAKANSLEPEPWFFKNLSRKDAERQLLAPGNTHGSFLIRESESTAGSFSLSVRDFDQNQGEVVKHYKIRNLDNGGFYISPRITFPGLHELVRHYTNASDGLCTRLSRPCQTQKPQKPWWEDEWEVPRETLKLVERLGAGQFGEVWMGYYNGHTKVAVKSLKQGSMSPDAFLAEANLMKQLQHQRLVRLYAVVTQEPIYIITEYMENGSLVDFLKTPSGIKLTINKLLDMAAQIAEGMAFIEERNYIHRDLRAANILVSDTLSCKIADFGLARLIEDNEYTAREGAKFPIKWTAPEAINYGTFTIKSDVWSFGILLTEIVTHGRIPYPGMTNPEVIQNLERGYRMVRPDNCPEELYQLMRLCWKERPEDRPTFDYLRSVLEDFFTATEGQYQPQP
Sequence of FLT3 (P36888 27-993, species assumed): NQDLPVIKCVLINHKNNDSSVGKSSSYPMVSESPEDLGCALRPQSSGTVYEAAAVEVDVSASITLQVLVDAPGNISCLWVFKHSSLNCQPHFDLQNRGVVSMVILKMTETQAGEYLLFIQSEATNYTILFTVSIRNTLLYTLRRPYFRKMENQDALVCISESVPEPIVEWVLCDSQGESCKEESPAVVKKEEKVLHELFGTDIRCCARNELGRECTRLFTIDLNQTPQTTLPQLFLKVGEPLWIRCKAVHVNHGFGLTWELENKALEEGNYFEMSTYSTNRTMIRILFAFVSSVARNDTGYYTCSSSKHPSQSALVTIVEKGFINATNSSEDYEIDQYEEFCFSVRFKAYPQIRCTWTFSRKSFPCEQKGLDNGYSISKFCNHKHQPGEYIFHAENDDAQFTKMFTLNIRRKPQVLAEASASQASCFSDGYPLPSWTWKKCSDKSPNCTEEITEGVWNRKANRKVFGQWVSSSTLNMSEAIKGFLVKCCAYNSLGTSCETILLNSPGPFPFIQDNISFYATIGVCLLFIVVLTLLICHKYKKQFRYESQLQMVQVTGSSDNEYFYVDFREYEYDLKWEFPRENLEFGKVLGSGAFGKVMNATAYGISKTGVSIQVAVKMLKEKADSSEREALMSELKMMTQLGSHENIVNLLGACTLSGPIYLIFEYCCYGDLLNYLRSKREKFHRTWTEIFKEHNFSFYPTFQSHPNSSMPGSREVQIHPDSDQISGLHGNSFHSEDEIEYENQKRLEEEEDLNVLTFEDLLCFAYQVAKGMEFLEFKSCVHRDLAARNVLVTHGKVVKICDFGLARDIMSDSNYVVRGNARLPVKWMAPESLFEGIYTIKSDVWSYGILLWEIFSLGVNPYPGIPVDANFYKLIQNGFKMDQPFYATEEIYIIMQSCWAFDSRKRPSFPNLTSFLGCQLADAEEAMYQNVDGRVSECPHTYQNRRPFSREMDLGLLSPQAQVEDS

For `OC[C@@H]1CCCN1Cc1onc(-c2ccc(F)cc2)c1-c1ccnc(NC2CCCCC2)n1` [V-05-014], the “effect on ozone-induced M2 receptor dysfunction” value in [1] is “completely protected M2 receptor function”. The inhibitory constant (Ki) on ROCK1, at IRAK, at PKA, at EphA, on MKK4 and on LCK was more than 1000 nM throughout. Besides, the Ki at TIE2 and at PDK1 was more than 1000 nM throughout. Moreover, in experiment [2], the “effect on ozone-induced potentiation of bronchoconstriction to intravenous acetylcholine” value (from here on “effect … to intravenous acetylcholine”) is reported as “not blocked”. Also, in experiment [3], the “effect on ozone-induced potentiation of vagally induced bronchoconstriction” value (“effect … of vagally induced bronchoconstriction” below) is “completely prevented ozone-induced airway hyperreactivity”. For the same molecule, the “Pulmonary Inflation Pressure (baseline)” value in experiment [4] turned out to be 225±5 mmH2O. Also, the “effect on ozone-induced potentiation of vagally mediated falls in heart rate” value (shortened to “effect … in heart rate”) in [5] was “prevented the ozone-induced potentiation of frequency induced falls in heart rate”.

With `Fc1ccc(-c2noc(CN3CCCCC3)c2-c2ccnc(NC3CCCCC3)n2)cc1` [V-05-015], the “effect on ozone-induced M2 receptor dysfunction” value in [1] is “completely protected M2 receptor function”. Further, the Ki at ROCK1, at IRAK, on PKA, at MKK4, on JAK2 and at LCK was more than 1000 nM throughout. For the same molecule, the Ki at FLT3 and at PDK1 was more than 1000 nM each time. In addition, in experiment [2] (air-exposed, 30 mg/kg ip), the “bronchoconstriction in response to intravenous acetylcholine” value is given as “hyperreactive to intravenous acetylcholine”. Moreover, the “effect … to intravenous acetylcholine” value in experiment [2] is reported as “attenuated ozone-induced smooth muscle hyperreactivity”. The “effect … of vagally induced bronchoconstriction” value in experiment [3] is listed as “completely prevented ozone-induced airway hyperreactivity”. Moreover, the “Pulmonary Inflation Pressure (baseline)” value in [4] is 213±7 mmH2O. For the same molecule, the “effect … in heart rate” value in experiment [5] is “prevented the ozone-induced potentiation of frequency induced falls in heart rate”.

For the molecule `OC1CCN(Cc2onc(-c3ccc(F)cc3)c2-c2ccnc(NC3CCCCC3)n2)CC1` [V-05-013], in experiment [1], the “effect on ozone-induced M2 receptor dysfunction” value was “partially prevented M2 receptor dysfunction”. Moreover, the Ki on ROCK1, at IRAK, at PKA, at EphA, at MKK4 and at JAK2 was more than 1000 nM in each case. Also, the inhibition constant (Ki) on TIE2, on FLT3 and on ITK was more than 1000 nM in each case. Besides, the “effect … to intravenous acetylcholine” value in experiment [2] was “not blocked”. For the same molecule, the “effect … of vagally induced bronchoconstriction” value in experiment [3] was “completely prevented ozone-induced airway hyperreactivity”. In addition, the “Pulmonary Inflation Pressure (baseline)” value in [4] is given as 190±15 ^‡ mmH2O. For the same molecule, the “effect … in heart rate” value in [5] is reported as “prevented the ozone-induced potentiation of frequency induced falls in heart rate”.
